Laboratory results reported in the supplement of paper PMC11061612.

Columns and labels:
Assay in all cases: combination Emax (second highest fraction inhibited in the dose matrix, 72 h); higher = more inhibition; extreme values may be limits of the assay
[1] = test system: 697 (B-Lymphoblastic Leukemia)
Procedure, shortened: (§1)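 Bliss excess equals the observed combination effect minus the expected value EA + EB − EA·EB, where EA and EB are the effects of each agent alone. Combination Emax is the second-highest inhibition within the matrix. Inhibition was scaled from CellTiter-Glo 2.0 luminescence, with 0 set by vehicle wells and 1 by blank wells, after 72 hours of two-drug dosing of cells plated in 1536-well plates.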

[2] = test system: C3A (Hepatocellular Carcinoma)
Procedure, shortened: as §1

[3] = test system: CFPAC-1 (Pancreatic Carcinoma)
Procedure, shortened: as §1

[4] = test system: COR-L23 (Non-Small Cell Lung Carcinoma)
Procedure, shortened: as §1

[5] = test system: DMS-273 (Small Cell Lung Carcinoma)
Procedure, shortened: as §1

[6] = test system: HCC2157 (Breast Carcinoma)
Procedure, shortened: as §1

[7] = test system: IHH-4 (Thyroid Gland Carcinoma)
Procedure, shortened: as §1

J82 (Bladder Carcinoma) = test system: J82 (Bladder Carcinoma)
Procedure, shortened: as §1

[8] = test system: LU-99A (Non-Small Cell Lung Carcinoma)
Procedure, shortened: as §1

[9] = test system: MDA-MB-231 (Breast Carcinoma)
Procedure, shortened: as §1

[10] = test system: MFH-ino (Other Solid Carcinomas)
Procedure, shortened: as §1

[11] = test system: NALM-6 (B-Lymphoblastic Leukemia)
Procedure, shortened: as §1

[12] = test system: NCI-H1299 (Non-Small Cell Lung Carcinoma)
Procedure, shortened: as §1

[13] = test system: NCI-H1781 (Lung Adenocarcinoma)
Procedure, shortened: as §1

[14] = test system: OCI-AML2 (Acute Myeloid Leukemia)
Procedure, shortened: as §1

SK-N-FI (Neuroblastoma) = test system: SK-N-FI (Neuroblastoma)
Procedure, shortened: as §1

SN12C (Kidney Carcinoma) = test system: SN12C (Kidney Carcinoma)
Procedure, shortened: as §1

[15] = test system: SW1088 (Low Grade Glioma)
Procedure, shortened: as §1

[16] = test system: SW1990 (Pancreatic Carcinoma)
Procedure, shortened: as §1

[17] = test system: TGBC24TKB (Biliary Tract Carcinoma)
Procedure, shortened: as §1

Row | Structure (SMILES) | combination Emax [1] | combination Emax [2] | combination Emax [3] | combination Emax [4] | combination Emax [5] | combination Emax [6] | combination Emax [7] | combination Emax (J82 (Bladder Carcinoma)) | combination Emax [8] | combination Emax [9] | combination Emax [10] | combination Emax [11] | combination Emax [12] | combination Emax [13] | combination Emax [14] | combination Emax (SK-N-FI (Neuroblastoma)) | combination Emax (SN12C (Kidney Carcinoma)) | combination Emax [15] | combination Emax [16] | combination Emax [17]
1 | CN(CCO)CC[C@H](CSc1ccccc1)Nc1ccc(S(=O)(=O)NC(=O)c2ccc(N3CCC([C@@H](O)c4ccccc4-c4ccc(Cl)cc4)CC3)cc2)cc1S(=O)(=O)C(F)(F)F [AZD4320] + Cn1cnc2c(F)c(Nc3ccc(Br)cc3Cl)c(C(=O)NOCCO)cc21 [Selumetinib] (first compound max 1 µM, 7x7, partner max 3 µM) | 1 | 0.847 | 0.472 | 0.442 | 0.349 | 0.923 | 0.58 | 0.245 | 0.87 | 0.832 | 0.421 | 0.982 | 0.3 | 0.568 | 1 | 0.554 | 0.337 | 0.289 | 0.557 | 0.791
2 | CN(C)CCCOc1ccc(-c2ccc3ncc4c(c3c2)n(C2CCOCC2)c(=O)n4C)cn1 [AZD0156] + O=C(c1cc(Cc2n[nH]c(=O)c3ccccc23)ccc1F)N1CCN(C(=O)C2CC2)CC1 [Olaparib] (first compound max 3 µM, partner max 3 µM) | 0.97 | 0.22 | 0.434 | 0.39 | 0.433 | 0.38 | 0.516 | 0.128 | 0.408 | 0.405 | 0.256 | 0.696 | 0.335 | 0.585 | 0.67 | 0.148 | 0.102 | 0.417 | 0.16 | 0.457
3 | CN(CCO)CC[C@H](CSc1ccccc1)Nc1ccc(S(=O)(=O)NC(=O)c2ccc(N3CCC([C@@H](O)c4ccccc4-c4ccc(Cl)cc4)CC3)cc2)cc1S(=O)(=O)C(F)(F)F [AZD4320] + C1CN(CCC1(C(=O)N[C@@H](CCO)C2=CC=C(C=C2)Cl)N)C3=NC=NC4=C3C=CN4 [Capivasertib] (first compound max 1 µM, 7x7, partner max 3 µM) | 1 | 0.292 | 0.0708 | 0.258 | 0.713 | 0.991 | 0.171 | 0.164 | 0.35 | 0.376 | 0.182 | 0.983 | 0.129 | 0.341 | 1 | 0.228 | 0.0749 | 0.423 | 0.0829 | 0.687
4 | COc1nnc2ccc(N3CCC(c4ccc(OCCN5CCN(C)C(=O)[C@H]5C)cc4)CC3)nn12 [AZD5153] + CC1(C)CCC(CN2CCN(c3ccc(C(=O)NS(=O)(=O)c4ccc(NCC5CCOCC5)c([N+](=O)[O-])c4)c(Oc4cnc5[nH]ccc5c4)c3)CC2)=C(c2ccc(Cl)cc2)C1 [Venetoclax] (first compound max 1 µM, 7x7, partner max 1 µM) | 1 | 0.453 | 0.416 | 0.317 | 0.749 | 1 | 0.498 | 0.308 | 0.456 | 0.661 | 0.415 | 0.993 | 0.691 | 0.224 | 1 | 0.629 | 0.318 | 0.471 | 0.108 | 0.642
5 | Cn1cnc2c(F)c(Nc3ccc(Br)cc3Cl)c(C(=O)NOCCO)cc21 [Selumetinib] + C[C@@H]1COCCN1C2=NC(=NC(=C2)C3(CC3)[S@](=N)(=O)C)C4=C5C=CNC5=NC=C4 [AZD6738] (first compound max 10 µM, 7x7, partner max 10 µM) | 1 | 0.759 | 0.667 | 0.615 | 0.811 | 0.856 | 0.646 | 0.482 | 0.569 | 0.718 | 0.421 | 0.972 | 0.543 | 0.396 | 1 | 0.746 | 0.192 | 0.65 | 0.502 | 0.703
